Experimental data published in US20230115176A1 (Ra Pharmaceuticals, Inc., priority 2019, published 2023).
Converted amounts (≈) assume the structure as drawn.

Tests used:
[1] = Kinetic solubility in PBS pH 7.4, HPLC-UV (Example 21, Table 27); type: physicochemical; settings: phosphate buffered saline, aqueous buffer, kinetic from dmso stock, 0.5 M PBS, shaken minimum 24 h at approximately 25° C., HPLC-UV 270 nm
In short: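 Supernatant measured by HPLC-UV (270 nm) against a DMSO calibration curve of 15.6–500.0 μM after filtration. Triplicate samples were made from 10 mM DMSO stock in 0.05 M phosphate buffer pH 7.4 (5% DMSO) and shaken at least 24 h at about 25 °C.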

Human C5 [2] = target: T1, Human C5 (Homo sapiens, UniProt P01031); assay: Red blood cell (RBC) hemolysis assay, luminescent (Example 13, Table 22); type: cell-based; settings: sheep EA cells, […] C5-depleted human serum, 0.5 nM human C5, 1 hour 37° C., luminescence; note: 1.5% C5-depleted human serum
T1 construct: purchased Complement Technology
T1 sequence (P01031 19-1676): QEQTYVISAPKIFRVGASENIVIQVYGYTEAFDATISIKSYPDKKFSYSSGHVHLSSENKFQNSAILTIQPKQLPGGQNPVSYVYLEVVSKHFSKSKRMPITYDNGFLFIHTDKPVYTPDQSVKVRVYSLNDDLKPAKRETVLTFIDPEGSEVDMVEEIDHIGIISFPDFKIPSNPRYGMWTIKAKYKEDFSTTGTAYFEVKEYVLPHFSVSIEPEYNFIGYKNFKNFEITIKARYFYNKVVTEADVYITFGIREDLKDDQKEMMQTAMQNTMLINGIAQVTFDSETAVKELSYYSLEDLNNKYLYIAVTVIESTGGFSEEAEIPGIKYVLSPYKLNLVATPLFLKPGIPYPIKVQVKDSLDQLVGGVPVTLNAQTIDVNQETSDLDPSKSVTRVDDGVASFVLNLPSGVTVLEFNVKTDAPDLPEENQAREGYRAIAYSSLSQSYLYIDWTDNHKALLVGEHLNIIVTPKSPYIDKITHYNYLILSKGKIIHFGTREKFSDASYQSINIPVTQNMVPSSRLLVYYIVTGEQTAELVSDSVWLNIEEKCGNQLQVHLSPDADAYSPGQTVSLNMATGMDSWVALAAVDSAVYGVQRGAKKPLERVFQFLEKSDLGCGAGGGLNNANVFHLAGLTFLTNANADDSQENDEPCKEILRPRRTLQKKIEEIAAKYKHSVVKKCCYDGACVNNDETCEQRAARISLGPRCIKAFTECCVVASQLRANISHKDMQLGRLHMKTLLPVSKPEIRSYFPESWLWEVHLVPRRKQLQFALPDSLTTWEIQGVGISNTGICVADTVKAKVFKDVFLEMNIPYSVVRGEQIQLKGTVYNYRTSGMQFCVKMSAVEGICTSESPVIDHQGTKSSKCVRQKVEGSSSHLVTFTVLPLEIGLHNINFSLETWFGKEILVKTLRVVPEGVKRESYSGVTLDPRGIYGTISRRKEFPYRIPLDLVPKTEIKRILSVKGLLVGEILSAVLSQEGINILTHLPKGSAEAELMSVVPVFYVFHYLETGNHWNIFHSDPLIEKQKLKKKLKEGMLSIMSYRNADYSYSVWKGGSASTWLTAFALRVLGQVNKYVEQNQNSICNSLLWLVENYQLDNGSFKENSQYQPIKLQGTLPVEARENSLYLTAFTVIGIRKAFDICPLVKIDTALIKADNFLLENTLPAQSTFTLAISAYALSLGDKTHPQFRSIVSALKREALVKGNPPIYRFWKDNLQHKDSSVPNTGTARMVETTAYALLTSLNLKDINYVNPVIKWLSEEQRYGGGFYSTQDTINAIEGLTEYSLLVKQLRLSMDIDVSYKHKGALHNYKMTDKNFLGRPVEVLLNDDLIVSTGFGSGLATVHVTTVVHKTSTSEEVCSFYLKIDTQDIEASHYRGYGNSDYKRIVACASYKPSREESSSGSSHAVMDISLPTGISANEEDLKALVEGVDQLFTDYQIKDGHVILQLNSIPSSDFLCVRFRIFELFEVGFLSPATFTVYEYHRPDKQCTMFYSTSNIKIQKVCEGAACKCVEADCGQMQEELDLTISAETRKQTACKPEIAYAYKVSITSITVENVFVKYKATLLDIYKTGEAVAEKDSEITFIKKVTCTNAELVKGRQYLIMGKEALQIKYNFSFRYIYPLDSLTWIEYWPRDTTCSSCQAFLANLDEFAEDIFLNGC
Source text: (§1) Compound CU0136 is a racemic mixture of Compound CU0186 and CU0187. Numbers in parenthesis following compound numbers indicate alternate enantiomers (as distinguished by retention time during chromatographical separation).

[3] = target: human C5 complement protein (Homo sapiens, UniProt P01031); assay: Surface plasmon resonance (SPR), immobilized human C5, 37° C. (Example 12, Table 21); type: binding; settings: where a range of compound concentrations were analyzed, the lowest value obtained
Chain of human C5 complement protein (P01031 19-1676): as above
Source text: as §1

Human C5 [4] = target: T1, Human C5; assay: Red blood cell (RBC) hemolysis assay, luminescent (Example 24, Table 29); type: cell-based; settings: sheep EA cells, […] C5-depleted human serum, 0.5 nM human C5, 1 hour at 37° C., luminescence (Table 29)
Source text: Numbers in parenthesis following the compound number indicate alternate enantiomers (as distinguished by retention time during chromatographical separation).

SMILES	IC50 (Human C5 [4]) [µM]	also measured
CCCCCOc1cc(N2CCCN(Cc3ccc(CC(=O)N4CCCN(C)CC4)cc3OC)C2=O)ccc1OC [CU0104]		solubility kinetic [1]: 269 µM (≈ 152 µg/mL); IC50 (Human C5 [2]): 0.0238 µM; Kd [3]: 0.0006 µM
CCCCCOc1cc(N2CCCN(Cc3ccc(CC(=O)N4CCOC(COC)C4)cc3OC)C2=O)ccc1OC (centres unmarked) [CU0105]		solubility kinetic [1]: 427 µM (≈ 249 µg/mL); IC50 (Human C5 [2]): 0.13 µM; Kd [3]: 0.0019 µM
CCCCCOc1cc(N2CCCN(Cc3ccc(CC(=O)N[C@H]4CN(C)C[C@H]4F)cc3OC)C2=O)ccc1OC [CU0106]		solubility kinetic [1]: 453 µM (≈ 259 µg/mL); IC50 (Human C5 [2]): 0.0439 µM; Kd [3]: 0.002 µM
CCCCCOc1cc(N2CCCN(Cc3ccc(CC(=O)N4CC(=O)N(C)C(C)C4)cc3OC)C2=O)ccc1OC (centres unmarked) [CU0107]		solubility kinetic [1]: 266 µM (≈ 154 µg/mL); IC50 (Human C5 [2]): 0.038 µM; Kd [3]: 0.002 µM
CCCCCOc1cc(N2CCCN(Cc3ccc(CC(=O)N[C@@H]4CNC[C@H]4F)cc3OC)C2=O)ccc1OC [CU0108]		solubility kinetic [1]: > 500 µM; IC50 (Human C5 [2]): 0.0195 µM; Kd [3]: 0.0012 µM
CCCCCOc1cc(N2CCCN(Cc3ccc(CC(=O)NC4CCN(C(C)C)CC4)cc3OC)C2=O)ccc1OC [CU0109]		solubility kinetic [1]: > 500 µM; IC50 (Human C5 [2]): 0.0186 µM; Kd [3]: 0.0011 µM
CCCCCOc1cc(N2CCCN(Cc3ccc(CC(=O)NC4CCN(C(C)=O)C4)cc3OC)C2=O)ccc1OC (centres unmarked) [CU0110]		solubility kinetic [1]: 295 µM (≈ 171 µg/mL); IC50 (Human C5 [2]): 0.0164 µM; Kd [3]: 0.002 µM
CCCCCOc1cc(N2CCCN(Cc3ccc(CN(CC)CC)cc3OC)C2=O)ccc1OC [CU0121]		IC50 (Human C5 [2]): 0.0389 µM; Kd [3]: 0.0275 µM
CCCCCOc1cc(N2CCCN(Cc3ccc(CCN(CC)CC)cc3OC)C2=O)ccc1OC [CU0122]		IC50 (Human C5 [2]): 0.0171 µM; Kd [3]: 0.0096 µM
CCCCCOc1cc(N2CCCN(Cc3ccc(CCN4CCCC4)cc3OC)C2=O)ccc1OC [CU0123]		solubility kinetic [1]: 404 µM (≈ 206 µg/mL); IC50 (Human C5 [2]): 0.0171 µM; Kd [3]: 0.0042 µM
CCCCCOc1cc(N2CCCN(Cc3ccc(CCN4CCOCC4)cc3OC)C2=O)ccc1OC [CU0124]		IC50 (Human C5 [2]): 0.026 µM; Kd [3]: 0.0064 µM
CCCCCOc1cc(N2CCCN(Cc3cccc(-c4cnn(C5CCN(C)CC5)c4)c3F)C2=O)ccc1OC [CU0127]		IC50 (Human C5 [2]): 0.0302 µM; Kd [3]: 0.0095 µM
CCCCCOc1cc(N2CCCN(Cc3cc(-c4cnn(C5COC5)c4)ccc3OC)C2=O)ccc1OC [CU0129]		IC50 (Human C5 [2]): 0.0615 µM; Kd [3]: 0.0238 µM
CCCCCOc1cc(N2CCCN(Cc3cccc4c3c(C)cn4CC(=O)N(C)C)C2=O)ccc1OC [CU0231]		solubility kinetic [1]: 64 µM (≈ 33.3 µg/mL); IC50 (Human C5 [2]): 0.0203 µM; Kd [3]: 0.0009 µM
CCCCCOc1cc(N2CCCN(Cc3cccc4c3c(F)cn4CC(=O)N(C)C)C2=O)ccc1OC [CU0232]		solubility kinetic [1]: < 10 µM; IC50 (Human C5 [2]): 0.0216 µM; Kd [3]: 0.0013 µM
CCCCCOc1cc(N2CCCN(Cc3cccc4c3ccn4CC(=O)N3CCCC3)C2=O)ccc1OC [CU0235]		IC50 (Human C5 [2]): 0.0294 µM; Kd [3]: 0.0038 µM
CCCCCOc1cc(N2CC[C@H](C)N(Cc3cccc4c3ccn4CC(=O)N3CCNC(=O)C3)C2=O)ccc1OC [SC0003]	0.0099	
CCCCCOc1cc(N2CC[C@H](C)N(Cc3cccc4c3ccn4CC(=O)N3CCCOCC3)C2=O)ccc1OC [SC0004]	0.0105	
CCCCCOc1cc(N2CC[C@H](C)N(Cc3cccc4c3ccn4CC(=O)N3CCOC(COC)C3)C2=O)ccc1OC (some centres unmarked) [SC0005]	0.0112	
CCCCCOc1cc(N2CC[C@H](C)N(Cc3cccc4c3ccn4CC(=O)NC3CC(O)C3)C2=O)ccc1OC (some centres unmarked) [SC0006]	0.0112	
CCCCCOc1cc(N2CC[C@H](C)N(Cc3cccc4[nH]ccc34)C2=O)ccc1OC [SC0010]	0.0247	
CCCCCOc1cc(N2CC[C@H](C)N(Cc3cccc4c3ccn4CC(=O)N3CCOCC3)C2=O)ccc1OC [SC0012]	0.0285	
CCCCCOc1cc(N2CC[C@H](C)N(Cc3cccc4c3ccn4Cc3cccnc3)C2=O)ccc1OC [SC0013]	0.0467	

SMILES	IC50 (Human C5 [4]) [µM]	also measured
CCCCCOc1cc(N2CC[C@@H](C)N(Cc3cccc4c3ccn4CC(=O)N(C)C)C2=O)ccc1OC [SC0014]	0.146	
CCCCCOc1cc(N2CC[C@@H](C)N(Cc3ccnc4[nH]ccc34)C2=O)ccc1OC [SC0015]	0.222	
CCCCCOc1cc(N2CC(CO)CN(Cc3cc(F)ccc3OC)C2=O)ccc1OC (centres unmarked) [SC0016(1)]	0.0084	
CCCCCOc1cc(N2CC(CO)CN(Cc3cc(F)ccc3OC)C2=O)ccc1OC (centres unmarked) [SC0016(2)]	0.0128	
CCCCCOc1cc(N2CC(C)CN(Cc3cc(F)ccc3OC)C2=O)ccc1OC (centres unmarked) [SC0018]	0.0447	
CCCCCOc1cc(N2CC(C)CN(Cc3ccc(CC(=O)O)cc3OC)C2=O)ccc1OC (centres unmarked) [SC0019]	0.0559	
CCCCCOc1cc(N2C[C@H](C)CN(Cc3cc(F)ccc3OC)C2=O)ccc1OC [SC0020]	0.0668	
CCCCCOc1cc(N2C[C@@H](C)CN(Cc3cc(F)ccc3OC)C2=O)ccc1OC [SC0021]	0.0715	
CCCCCOc1cc(N2CC(O)(CO)CN(Cc3cc(F)ccc3OC)C2=O)ccc1OC (centres unmarked) [SC0022]	0.14	
CCCCCOc1cc(N2CC(COCc3ccncn3)CN(Cc3cc(F)ccc3OC)C2=O)ccc1OC (centres unmarked) [SC0023]	0.111	
CCCCCOc1cc(N2CC(COCC(=O)O)CN(Cc3cc(F)ccc3OC)C2=O)ccc1OC (centres unmarked) [SC0024]	0.0593	
CCCCCOc1cc(N2CC(COCC(=O)N(C)C)CN(Cc3cc(F)ccc3OC)C2=O)ccc1OC (centres unmarked) [SC0025]	0.0594	
CCCCCOc1cc(N2CC(COCC(=O)N(C)CCO)CN(Cc3cc(F)ccc3OC)C2=O)ccc1OC (centres unmarked) [SC0026]	0.0597	
CCCCCOc1cc(N2CC(CO)CN(Cc3ccc(Br)cc3OC)C2=O)ccc1OC (centres unmarked) [SC0027]	0.0651	
CCCCCOc1cc(N2CC(COCC(N)=O)CN(Cc3cc(F)ccc3OC)C2=O)ccc1OC (centres unmarked) [SC0028]	0.0537	
CCCCCOc1cc(N2CC(COCC(=O)N3CCOCC3)CN(Cc3cc(F)ccc3OC)C2=O)ccc1OC (centres unmarked) [SC0029]	0.0845	
CCCCCOc1cc(N2CC(COCC(=O)NC)CN(Cc3cc(F)ccc3OC)C2=O)ccc1OC (centres unmarked) [SC0030]	0.0945	
CCCCCOc1cc(N2CC(Cn3cc(C)cn3)CN(Cc3cc(F)ccc3OC)C2=O)ccc1OC (centres unmarked) [SC0031]	0.096	
CCCCCOc1cc(N2CC(Cn3cc(-c4cnccn4)cn3)CN(Cc3cc(F)ccc3OC)C2=O)ccc1OC (centres unmarked) [SC0032]	0.0998	
CCCCCOc1cc(N2CC(Cn3cccn3)CN(Cc3cc(F)ccc3OC)C2=O)ccc1OC (centres unmarked) [SC0033]	0.101	
CCCCCOc1cc(N2CC(CN)CN(Cc3cc(F)ccc3OC)C2=O)ccc1OC (centres unmarked) [SC0034]	0.115	
CCCCCOc1cc(N2CC(Cn3cncn3)CN(Cc3cc(F)ccc3OC)C2=O)ccc1OC (centres unmarked) [SC0035]	0.122	
CCCCCOc1cc(N2CC(CNC(=O)C(F)(F)F)CN(Cc3cc(F)ccc3OC)C2=O)ccc1OC (centres unmarked) [SC0036]	0.122	

SMILES	IC50 (Human C5 [4]) [µM]	also measured
CCCCCOc1cc(N2CC(COCC(=O)NCCOC)CN(Cc3cc(F)ccc3OC)C2=O)ccc1OC (centres unmarked) [SC0037]	0.124	
CCCCCOc1cc(N2CC(Cn3cc(-c4ccccn4)nn3)CN(Cc3cc(F)ccc3OC)C2=O)ccc1OC (centres unmarked) [SC0038]	0.129	
CCCCCOc1cc(N2CC(Cn3cc(CO)nn3)CN(Cc3cc(F)ccc3OC)C2=O)ccc1OC (centres unmarked) [SC0040]	0.208	
CCCCCOc1cc(N2CC(Cn3cc4ccccc4n3)CN(Cc3cc(F)ccc3OC)C2=O)ccc1OC (centres unmarked) [SC0041]	0.251	
CCCCCOc1cc(N2CC(Cn3ccnc3)CN(Cc3cc(F)ccc3OC)C2=O)ccc1OC (centres unmarked) [SC0042]	0.258	
CCCCCOc1cc(N2CC(Cn3ncc4ccccc43)CN(Cc3cc(F)ccc3OC)C2=O)ccc1OC (centres unmarked) [SC0043]	0.337	
CCCCCOc1cc(N2CC(C(N)=O)CN(Cc3cc(F)ccc3OC)C2=O)ccc1OC (centres unmarked) [SC0044]	0.0149	
CCCCCOc1cc(N2CC(C(=O)N3CCS(=O)(=O)C3)CN(Cc3cc(F)ccc3OC)C2=O)ccc1OC (centres unmarked) [SC0045]	0.0243	
CCCCCOc1cc(N2CC(C(=O)NC)CN(Cc3cc(F)ccc3OC)C2=O)ccc1OC (centres unmarked) [SC0046]	0.033	
CCCCCOc1cc(N2CC(C(=O)NCCOC)CN(Cc3cc(F)ccc3OC)C2=O)ccc1OC (centres unmarked) [SC0047]	0.0362	
CCCCCOc1cc(N2CC(C(=O)N(C)C)CN(Cc3cc(F)ccc3OC)C2=O)ccc1OC (centres unmarked) [SC0048]	0.0523	
CCCCCOc1cc(N2CC(C(=O)N(C)CCO)CN(Cc3cc(F)ccc3OC)C2=O)ccc1OC (centres unmarked) [SC0049]	0.0681	
CCCCCOc1cc(N2CC(C(=O)Nc3ncco3)CN(Cc3cc(F)ccc3OC)C2=O)ccc1OC (centres unmarked) [SC0050]	0.0762	
CCCCCOc1cc(N2CC(C(=O)N3CCOCC3)CN(Cc3cc(F)ccc3OC)C2=O)ccc1OC (centres unmarked) [SC0051]	0.111	
CCCCCOc1cc(N2CC(CNC(=O)c3cnco3)CN(Cc3cc(F)ccc3OC)C2=O)ccc1OC (centres unmarked) [SC0053]	0.0242	
CCCCCOc1cc(N2CC(CNC(=O)c3ccccn3)CN(Cc3cc(F)ccc3OC)C2=O)ccc1OC (centres unmarked) [SC0054]	0.0348	
CCCCCOc1cc(N2CC(CNC(=O)C(=O)N(C)C)CN(Cc3cc(F)ccc3OC)C2=O)ccc1OC (centres unmarked) [SC0055]	0.0382	
CCCCCOc1cc(N2CC(CNC(=O)COC)CN(Cc3cc(F)ccc3OC)C2=O)ccc1OC (centres unmarked) [SC0056]	0.0425	
CCCCCOc1cc(N2CC(CNC(=O)c3ccnn3C)CN(Cc3cc(F)ccc3OC)C2=O)ccc1OC (centres unmarked) [SC0057]	0.0475	
CCCCCOc1cc(N2CC(O)CN(Cc3cc(F)ccc3OC)C2=O)ccc1OC (centres unmarked) [SC0058]	0.0508	
CCCCCOc1cc(N2CC(C(=O)O)CN(Cc3cc(F)ccc3OC)C2=O)ccc1OC (centres unmarked) [SC0059]	0.0577	
C=C1CN(Cc2ccc(Br)cc2OC)C(=O)N(c2ccc(OC)c(OCCCCC)c2)C1 [SC0062]	0.173	
CCCCCOc1cc(N2C(=O)CN(Cc3cc(F)ccc3OC)C2=O)ccc1OC [SC0063]	0.985	
